Measured values reported in patent publication US9193697B2, “Oxazole derivatives useful as modulators of FAAH” (MERCK SHARP & DOHME CORP., priority 2010, dated 2015).

Experiments:
[1] = target: T1, human FAAH (Fatty Acid Amide Hydrolase) (Homo sapiens (Human), UniProt O00519); test: FAAH inhibition, human FAAH CHO cell lysate (AAMCA fluorescence); format: biochemical
From the text: To assist in assay development stable cell lines for human, murine and rat full length FAAH were developed. […] The full length FAAH was subcloned into the mammalian expression vector, pcDEF.neo, using XbaI and EcoRI restriction sites and used for stable cell line generation.
The full length murine FAAH was subcloned into the mammalian expression vector, pcDEFneo using either EcoRI (murine) or KpnI and EcoRI (rat) restriction sites. Chinese hamster ovary cells (CHO) were transfected following manufacturers protocol (AMAXA). Forty eight hours post transfection, cells were trypsinized and transferred to 96 well plates in Iscove's DMEM media supplemented with 2 mM Glutamine, 10% fetal calf serum, 1 mg/ml geneticin and HT Supplement (0.1 mM sodium hypoxanthine, 0.016 mM thymidine) in order to isolate single clones. […] Following removal of tissue culture media cells were dislodged following addition of Cellstripper (Mediatech, Inc. Manassas, Va.) and transferred to 96 well black clear bottom assay plate, centrifuged at 1,000 rpm for 3 mins and media removed and replaced with assay buffer (50 mM Tris pH8.0, 1 mM EDTA, 0.1% fatty acid free BSA). The reaction was initiated by addition of fluorescent substrate, AMC Arachidonoyl Amide (Cayman Chemical, Ann Arbor, Mich.) to 1 μM and reaction allowed to proceed for 2 hours at room temperature. Release of fluorescence was monitored in a CytoFluor Multiplate Reader.
CHO cells expressing FAAH were used to prepare either crude cell lysate or microsome fractions. To harvest cells, tissue culture media was decanted, the monolayer washed three times with Ca^++Mg^++ free PBS and cells recovered after 15 min in enzyme free dissociation media (Millipore Corp, Billerica, Mass.). Cells were collected by centrifuging at 2000 rpm for 15 min, and the cell pellet re-suspended with 50 mM HEPES (pH 7.4) containing 1 mM EDTA and the protease inhibitors aprotinin (1 mg/ml) and leupeptin (100 μM). The suspension was sonicated at 4° C. and the cell lysate recovered after centrifuging at 12,000×g (14,600 rpm, SS34 rotor) for 20 min at 4° C. to form a crude pellet of cell debris, nuclei, peroxisomes, lysosomes, and mitochondria; the supernatant or cell lysate was used for FAAH enzyme assay. In some eases, microsomes fractions enriched in FAAH were prepared by centrifuging the cell lysate further at 27,000 rpm (100,000×g) in SW28 rotor for 50 minutes at 4° C. The pellet containing FAAH-enriched microsomes was re-suspend in 50 mM HEPES, (pH 7.4) 1 mM EDTA, and any remaining DNA sheared by passage of material through a 23 gauge needle and aliquots of enzyme were store at −80° C. prior to use.
Assays are performed on either cell lysate or microsome fractions prepared as described or in whole cell format employing either the fluorescent substrate AAMCA (Cayman chemical, Ann Arbor, Mich.,) or ^3H-anandamide ([ETHANOLAMINE-1-3H] American Radiolabeled Chemicals; 1 mCi/ml). […] AAMCA substrate was used to achieve a final concentration of 1 μM and reaction allowed to proceed at room temperature for 1-3 hours. […] Whole cell assay is conducted with cells harvested after rinsing tissue culture flasks three times with Ca^++Mg^++ free PBS, incubating for 10 min in Enzyme free dissociation media and centrifuging for 5 minutes at 1,000 rpm in table top centrifuge. Cells are resuspended in assay buffer at desired cell number in (4×10^4 cells/assay in 96-well format; 1×10^4 cells/assay in 384-well format) and assayed as described.
Alternatively, assays are performed using anandamide [ethanolamine 1-^3H] (specific activity of 10 Ci/mmol) diluted with cold anandamide to achieve a final assay concentration of 1 μM anandamide (˜50,000 cpm). Enzyme (CHO cell lysate, brain or liver homogenate) is incubated in assay buffer (50 mM Phosphate, pH 8.0, 1 mM EDTA, 200 mM KCl, 0.2% glycerol, 0.1% fatty acid free BSA) with inhibitor at 25° C. for 30 minutes.

[2] = target: T1, human FAAH (Fatty Acid Amide Hydrolase); test: FAAH inhibition, human FAAH CHO whole cell format; format: cell-based

T1 sequence (O00519 whole entry): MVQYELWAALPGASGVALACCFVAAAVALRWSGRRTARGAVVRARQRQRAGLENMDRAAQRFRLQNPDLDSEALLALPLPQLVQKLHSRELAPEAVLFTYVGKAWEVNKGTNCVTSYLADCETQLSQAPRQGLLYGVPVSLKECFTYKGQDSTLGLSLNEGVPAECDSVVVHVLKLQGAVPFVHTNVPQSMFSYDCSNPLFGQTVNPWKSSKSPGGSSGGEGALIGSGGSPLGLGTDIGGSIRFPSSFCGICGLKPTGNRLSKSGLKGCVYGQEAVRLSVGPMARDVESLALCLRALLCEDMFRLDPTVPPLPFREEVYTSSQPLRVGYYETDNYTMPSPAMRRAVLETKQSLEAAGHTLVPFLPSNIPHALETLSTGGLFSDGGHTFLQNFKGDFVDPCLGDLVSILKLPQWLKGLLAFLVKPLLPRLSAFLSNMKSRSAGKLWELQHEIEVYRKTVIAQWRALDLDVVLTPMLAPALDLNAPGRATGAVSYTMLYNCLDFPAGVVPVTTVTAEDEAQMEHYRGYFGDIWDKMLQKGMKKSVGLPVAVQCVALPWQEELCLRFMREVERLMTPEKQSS

IC50 [1]: 15.9 nM
IC50 [2]: 31 nM
Structure (SMILES): C[S+]([O-])c1ccc(-c2nc(C3=CCOCC3)oc2Sc2ccc(Cl)cc2)cc1 (centres unmarked) [Example C6.3, 5-[(4-chlorophenyl)sulfanyl]-2-(3,6-dihydro-2H-pyran-4-yl)-4-[4-(methylsulfinyl)phenyl]-1,3-oxazole]
